The experiment has as its target T1, OATP1B3 (Homo sapiens, UniProt Q9NPD5).
T1 sequence (Q9NPD5 1-702): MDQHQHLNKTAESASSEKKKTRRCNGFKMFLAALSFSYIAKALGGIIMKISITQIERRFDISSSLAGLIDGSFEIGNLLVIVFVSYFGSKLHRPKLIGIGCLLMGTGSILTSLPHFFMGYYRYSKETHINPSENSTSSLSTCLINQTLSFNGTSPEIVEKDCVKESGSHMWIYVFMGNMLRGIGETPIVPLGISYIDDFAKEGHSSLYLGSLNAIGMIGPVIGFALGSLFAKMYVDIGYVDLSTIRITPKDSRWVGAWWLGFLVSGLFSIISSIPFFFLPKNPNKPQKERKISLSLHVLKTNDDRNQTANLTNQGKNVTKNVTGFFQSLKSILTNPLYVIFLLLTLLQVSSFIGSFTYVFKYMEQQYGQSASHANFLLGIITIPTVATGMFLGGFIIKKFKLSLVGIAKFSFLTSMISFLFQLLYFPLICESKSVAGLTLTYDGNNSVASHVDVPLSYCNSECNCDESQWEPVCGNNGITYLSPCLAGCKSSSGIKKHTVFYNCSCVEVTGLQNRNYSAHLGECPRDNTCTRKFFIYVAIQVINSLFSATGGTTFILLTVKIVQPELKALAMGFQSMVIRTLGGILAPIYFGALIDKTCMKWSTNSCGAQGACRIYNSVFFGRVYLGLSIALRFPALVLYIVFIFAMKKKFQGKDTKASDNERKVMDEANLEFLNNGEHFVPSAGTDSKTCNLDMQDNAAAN
Kind of experiment: radiolabeled uptake kinetics. The experiment is classed as cell-based. The conditions noted are these: oatp1b3-cho cells.

What is called Km is the concentration of substrate that gives half-maximal velocity. As to `C[C@]12CCC(=O)C[C@@H]1CC[C@@H]1[C@@H]2CC[C@]2(C)[C@@H](O)CC[C@@H]12` [DHT], the Km was determined as 30.4 ± 9.3 µM.

Turning to `C[C@]12CCC(=O)C=C1CC[C@@H]1[C@@H]2CC[C@]2(C)C(=O)CC[C@@H]12` [androstenedione, 4-androstene-3,17-dione], the Km worked out at 31.7 ± 9.5 µM.

Consider `C[C@]12CC[C@H]3[C@@H](CCC4=CC(=O)CC[C@@]43C)[C@@H]1CC[C@@H]2O` [testosterone], for which the Km was determined as 23.2 ± 3.9 µM.

The values are drawn from PMC5540879 (Molecular cancer research : MCR, 2017).
